Measured values reported in US20090137688A1, “PHARMACEUTICAL PRODUCT” (priority 2005, published 2009).
Structures can show the parent of a compound that is named as a salt.

Experiment: Accumulative release from porous silicon samples immersed in PBS buffer, measured by UV spectroscopic technique
Type: physicochemical
Conditions: PBS buffer at 37 C; for rate of release when the porous silicon wafer has been coated with cocoa butter, relative to the uncoated state: Method A, cocoa butter layer approx. 1 mm, FIG. 1
Protocol: A number of experiments were performed to show the effect of an excipient upon the release of a beneficial substance from the pores of porous silicon. Three substances were tested: chlorambucil, amitriptyline hydrochloride, neutral red. The excipient employed was cocoa butter. Three methods of combining the porous silicon, excipient, and beneficial substance, were carried out.
Method A comprises the steps of: (a) dissolving the beneficial substance in ethanol; (b) introducing the ethanolic solution of the beneficial substance to the surface of the porous silicon wafer and allowing it to pass into the pores; (c) applying heat to the porous silicon wafer by means of a hot plate to drive off the ethanol, (d) removing the excess beneficial substance, that has not entered the pores, by washing with ethanol; (e) dropping melted cocoa butter oil onto the porous side of the wafer, which has been loaded with a beneficial substance; and (f) allowing the wafer to cool at an ambient temperature of 20 C for approximately one hour, the cocoa butter forming a layer, approximately 1 mm in depth, that coats the surface of the porous silicon.
Method B comprises the steps: (a) dissolving the beneficial substance and excipient in ethanol; (b) introducing the ethanolic solution of the beneficial substance and excipient to the surface of the porous silicon wafer and allowing it to pass into the pores; (c) applying heat to the porous silicon wafer by means of a hot plate thereby driving off the ethanol, and (d) removing the excess beneficial substance and excipient, that have not entered the pores, by washing with ethanol. The porosified wafer, utilized for methods A and B, comprised mesoporous silicon having a porosity of 74%.
Method C comprises the steps: (a) fabricating particles of porous silicon by milling one or more porous silicon membranes; (b) combining the silicon particles with an ethanolic solution of the beneficial substance in a flask; (c) removing the ethanol by rotary evaporation; (d) mixing the beneficial substance loaded particles with excipient, (e) introducing the mixture to a cylindrical die, and (f) applying a uniaxial pressure of 0.5 ton to form a pellet. The porous silicon membrane, utilized for method C, comprises mesoporous silicon having a porosity of: 77%.
Samples of porous silicon that have been combined with beneficial substance and excipient by methods A, B, and C were then immersed in PBS buffer at 37 C, and the accumulative release was measured by means of a UV spectroscopic technique.
The uncoated samples, the results for which are shown in FIG. 1, were prepared, with the steps (a) to (d) of method A.

[1] = mesoporous silicon wafer, porosity 74%

Structure (SMILES) | rate of release when the porous silicon wafer has been coated with cocoa butter, relative to the uncoated state [1] | rate of release for porous silicon loaded with beneficial substance alone, compared with solution loading with cocoa butter (Method B, mesoporous silicon wafer, porosity 74%, FIG. 2) | rate of release from pellet, excipient free sample versus pellet with equal mass of cocoa butter and porous silicon, during the first seven hours (Method C, compressed pellet, mesoporous silicon porosity 77%, FIG. 3) | rate of release from the excipient containing pellet beyond seven hours (Method C, pellet with equal mass of cocoa butter and porous silicon, FIG. 3)
O=C(O)CCCc1ccc(N(CCCl)CCCl)cc1 [chlorambucil] | increases | faster than when the excipient is present | higher, from the excipient free sample | accelerates until it is higher than that of the excipient free sample
CN(C)CCC=C1c2ccccc2CCc2ccccc21 [amitriptyline hydrochloride] | slower | – | – | –
